{"source": "patent US20070197453A1", "about": "“Compositions and methods for treatment of disorders of protein aggregation” (priority 2006, published 2007)", "key": {"TgCRND8 mice [1]": {"system": "TgCRND8 mice", "experiment": "Survival census (Kaplan-Meier)", "format": "in vivo, mouse", "description": "Survival Census: The probability of survival was assessed by the Kaplan-Meier technique, computing the probability of survival at every occurrence of death, thus making it suitable for small sample sizes. For the analyses of survival, 35 mice were used for each treatment group. The Tarone-Ware test was used to assess effects of treatments.\nSurvival Census: The probability of survival was assessed by the Kaplan-Meier technique computing the probability of survival at every occurrence of death, thus making it suitable for small sample sizes. For the analyses of survival, 30 mice were used for each treatment group. The Tarone-Ware test was used to assess effects of treatments."}, "TgCRND8 mice [2]": {"system": "TgCRND8 mice", "experiment": "Morris Water Maze spatial reference memory test", "format": "in vivo, mouse", "settings": "for spatial memory / cognition compared to untreated TgCRND8 mice / spatial memory compared to non-Tg littermates: one month treatment from 5 months of age; for effect on non-Tg littermate performance: non-Tg littermates, one month treatment", "description": "(§1) Behavioural tests: Morris Water Maze testing was performed as previously described. After non-spatial pre-training, mice underwent place discrimination training for 5 days with 4-trials per day, followed by a cued visible platform to rule out general motivational, learning deficits and motor problems, and a probe trial to evaluate memory. […] Open field test for motor activity was preformed as described previously. Duration of walking, pausing and grooming were analyzed as indices of spontaneous locomotor activity. Sensorimotor function was examined with an Economex™ accelerating rotarod (Columbus Instruments, Columbus, Ohio), as described elsewhere. The rod was set to accelerate at a rate of 0.2 r.p.m./s, from an initial, constant speed of 5 r.p.m. Latency to fall was recorded in four daily trials, conducted at 30 min intervals. All mice were trained for seven days before testing. The test day performance score for each animal was obtained by summing its latency to fall over the four trials\nBehavioural tests: Behavioural analyses were performed using the Morris Water Maze test (13, 14). After pre-spatial training, mice underwent place discrimination training for 5 days with 4 trials per day, followed by a cued visible platform to rule out general motivational, learning deficits and motor problems. […] Open field test for motor activity was performed as described previously. Duration of walking, pausing, rearing and grooming were analyzed as indices of spontaneous locomotor activity."}, "[3]": {"settings": "mouse, in vivo", "description": "Mice. […] This initial dosage was chosen based upon the dosage of myo-cyclohexanehexol (6-18 grams/day/adult or 86-257 mg/Kg/day) that is typically administered to human patients for various psychiatric disorders. […] A cohort of animals (n=10 mice per treatment arm) entered the study at five months of age, and outcomes were then analyzed after one month of treatment. The body weight, coat characteristics and in cage behaviour were monitored. Mannitol was used as a negative control for potential alterations in caloric intake. All experiments were performed according to the Canadian Council on Animal Care guidelines.\nMice. […] Cohorts of animals entered the study at 5 months of age and outcomes were analyzed after one month. Alternatively, cohorts of animals entered the prophylactic study at 6 weeks of age and outcome measures were analysed at 6-months of age. The body weight, coat characteristics and in cage behaviour was monitored. All experiments were performed according to the Canadian Council on Animal Care guidelines."}, "[4]": {"experiment": "Hematology and serum biochemical analyses", "format": "in vivo, mouse", "excerpt": "Blood was collected prior to sacrifice and samples were sent to VITA-TECH laboratories (Markham, ON, Canada) for analyses. Reference values were obtained from Zhou and Hansson."}, "TgCRND8 mice [5]": {"system": "TgCRND8 mice", "experiment": "Open field test for motor activity", "format": "in vivo, mouse", "settings": "TgCRND8 mice and non-Tg littermates; drinking water 10 mg/ml, extended treatment", "description": "as §1\n(§2) Behavioural tests: Behavioural analyses were performed using the Morris Water Maze test (13, 14). […] Duration of walking, pausing, rearing and grooming were analyzed as indices of spontaneous locomotor activity."}, "TgCRND8 mice [6]": {"system": "TgCRND8 mice", "experiment": "Synaptophysin quantification by western blotting (hippocampus)", "format": "in vivo, mouse", "description": "Synaptophysin protein levels were determined in treated and control mice by western blotting. Sections were immunoblotted for synaptophysin with anti-synaptophysin IgG (1:40; Roche, Laval, PQ) or GAPDH IgG (1: 10,000; Biodesign International) as a loading control. Films were scanned before analyses using NIH Image analyses combined with densitometry. Synaptophysin values were normalized to the loading control for each sample. Statistical analyses were determined using factorial ANOVA with Fishers PLSD as a post-hoc test."}, "TgCRND8 mice [7]": {"system": "TgCRND8 mice", "experiment": "Cued visible platform test (Morris Water Maze)", "format": "in vivo, mouse", "settings": "one month treatment from 5 months of age", "description": "as §1, §2"}, "[8]": {"settings": "drinking water 10 mg/ml, listed as Epi-2-inosose"}, "[9]": {"settings": "drinking water 10 mg/ml, prophylactic from 6 weeks until six months of age"}}, "note": "Entries after “also recorded” stand apart in the source; their conditions may differ."}
{"substance": "epi-2-inosose", "values": [{"measurement": "Kaplan Meier cumulative survival", "setting": "TgCRND8 mice [1]; drinking water 10 mg/ml, compared to untreated TgCRND8 mice", "value": "increased survival"}, {"measurement": "improvement of survival", "setting": "TgCRND8 mice [1]; prophylactic treatment to six months of age, vs untreated", "value": 50, "unit": "%"}, {"measurement": "spatial memory / cognition compared to untreated TgCRND8 mice", "setting": "TgCRND8 mice [2]; drinking water 10 mg/ml", "value": "significantly better than untreated TgCRND8 littermates"}, {"measurement": "spatial memory compared to non-Tg littermates", "setting": "TgCRND8 mice [2]; drinking water 10 mg/ml", "value": "not significantly different from non-Tg littermates"}, {"measurement": "spatial memory / cognition compared to untreated TgCRND8 mice", "setting": "TgCRND8 mice [2]; [8]", "value": "significantly improved cognition"}, {"measurement": "spatial memory compared to non-Tg littermates", "setting": "TgCRND8 mice [2]; [8]", "value": "not significantly different from treated nTg littermates"}, {"measurement": "spatial learning compared to non-Tg littermates", "setting": "TgCRND8 mice [2]; [9]", "value": "approached that of non-Tg littermates"}, {"measurement": "spatial learning compared to untreated TgCRND8 littermates", "setting": "TgCRND8 mice [2]; [9]", "value": "better cognitive function compared to their untreated TgCRND8 littermates"}, {"measurement": "spatial learning compared to non-Tg littermates", "setting": "TgCRND8 mice [2]; drinking water 10 mg/ml, prophylactic from 6 weeks until six months of age, listed as Epi-2-inosose", "value": "different from non-Tg littermates on all days of testing"}, {"measurement": "effect on non-Tg littermate performance", "setting": "TgCRND8 mice [2]; drinking water 10 mg/ml", "value": "no effect on non-Tg littermate performance"}, {"measurement": "effect on non-Tg littermate performance", "setting": "TgCRND8 mice [2]; [8]", "value": "no effect on non-Tg littermate behaviour"}, {"measurement": "effect on cognitive performance of non-Tg mice", "setting": "TgCRND8 mice [2]; non-Tg mice, prophylactic administration", "value": "no effect on the cognitive performance of non-Tg mice"}, {"measurement": "survival, weight, fur condition, cage behaviour", "setting": "[3]", "value": "no effect on survival, weight, fur condition, or cage behaviour of wild type mice"}, {"measurement": "serum biochemistry: organ function", "setting": "[4]; Tg and non-Tg mice treated", "value": "normal kidney, heart, liver and pancreas function"}, {"measurement": "ALP", "setting": "[4]; serum, Treated TgCRND8", "value": "73 ± 5", "unit": "U/L"}, {"measurement": "ALT", "setting": "[4]; serum, Treated TgCRND8", "value": "30 ± 3", "unit": "U/L"}, {"measurement": "Albumin", "setting": "[4]; serum, Treated TgCRND8", "value": "32 ± 2", "unit": "g/L"}, {"measurement": "Bilirubin", "setting": "[4]; serum, Treated TgCRND8", "value": "1.8 ± 0.15", "unit": "µmol/L"}, {"measurement": "Creatine", "setting": "[4]; serum, Treated TgCRND8", "value": "15.9 ± 2", "unit": "µmol/L"}, {"measurement": "Globulin", "setting": "[4]; serum, Treated TgCRND8", "value": "18 ± 2", "unit": "g/L"}, {"measurement": "Glucose", "setting": "[4]; serum, Treated TgCRND8", "value": "12 ± 0.6", "unit": "mmol/L"}, {"measurement": "Total Protein", "setting": "[4]; serum, Treated TgCRND8", "value": "49 ± 0.7", "unit": "g/L"}, {"measurement": "Urea", "setting": "[4]; serum, Treated TgCRND8", "value": "8.6 ± 0.4", "unit": "mmol/L"}, {"measurement": "open field test: rearing, grooming, walking, pausing (activity levels)", "setting": "TgCRND8 mice [5]", "value": "indistinguishable; also recorded: does not affect activity levels"}, {"measurement": "Synaptophysin reactivity / levels", "setting": "TgCRND8 mice [6]; 6 month prophylactic and treatment paradigms", "value": "significantly increased"}, {"measurement": "increase in synaptophysin reactivity in the hippocampus", "setting": "TgCRND8 mice [6]; delayed treatment study", "value": 15, "unit": "%"}, {"measurement": "increase in synaptophysin reactivity in the hippocampus", "setting": "TgCRND8 mice [6]; prophylactic study", "value": 33, "unit": "%"}, {"measurement": "Visual acuity (cued version of the Morris Water Maze test)", "setting": "TgCRND8 mice [7]", "value": "not altered by treatment"}]}
